In article PMC8824275, “Gastrointestinal Stability and Cytotoxicity of Bacteriocins From Gram-Positive and Gram-Negative Bacteria: A Comparative in vitro Study” (Frontiers in Microbiology, 2022):

Tests used:
Caco-2 cells = assay: LDH release assay (membrane integrity); assay type: cell-based, human; settings: Caco-2, CytoTox-ONE LDH release, 0.4 to 400 μg/mL, 24 h (method: 48 h), 37°C, mean of three experiments
Protocol: The human colonic adenocarcinoma (Caco-2) cells were purchased from ATCC. Cells were cultured in DMEM medium in a humidified atmosphere containing 5% CO2 at 37°C. For the LDH release assay, cells were seeded in 96 well flat bottom culture plates (1 × 10^4 cells/well). Caco-2 cells, which have been frequently used for permeability studies across the intestinal epithelium, were selected in this study for evaluating the cytotoxicity of bacteriocins and their interaction with intestinal epithelium during GI transit to determine their cytotoxicity.
The CytoTox-ONE™ cytotoxicity assay kit (Promega, United States) was used to measure the LDH release. […] Lysis solution (Promega) was added in a 1:1 ratio to selected control wells to induce the maximal release of LDH and the plate was incubated for 5 min. […] Finally, stop solution was then added to each well, and absorbance was measured using a spectrophotometer (Tecan Spark 20M, Morrisville, NC, United States) at excitation/emission wavelengths of 560/590 nm. Each compound-treated value was blanked with the values of the control-treated cells and cytotoxicity was expressed as percentage of the maximal LDH release (lysis solution treated cells), calculated by the following formula: […]

rat erythrocytes = assay: Hemolytic activity; assay type: cell-based; settings: 45 min, 37°C
Protocol: The experiment was performed after prior approval from the local ethics committee by TransBIOTech laboratory. Hemolytic potential of bacteriocins was evaluated according to [FDA (2005)]. Rat blood was collected into a heparinized tube and added in a 1:1 volume (100 μL) to serially diluted compounds (in 100 μL PBS), in a conical 96-well plate. 10% Triton X-100 and PBS were used as a positive and negative controls, respectively. The plates were sealed and incubated for 45 min at 37°C prior to centrifugation at 2,000 g for 10 min to pellet red blood cells. The supernatant was then transferred into clear 96-well plates and the absorbance was read at 540 nm (hemoglobin). The percentage of hemolysis was calculated as follow, with RBC standing for red blood cells:
%Hemolysis=AbsorbanceofRBCtreatedwithbacteriocins-AbsorbanceofRBCtreatedwithPBS/AbsorbanceofRBCtreatedwithTritonX100-AbsorbanceofRBCtreatedwithPBS

C=C(NC(=O)[C@@H](NC(=O)[C@H](Cc1c[nH]cn1)NC(=O)[C@@H](NC(=O)[C@H](CO)NC(=O)[C@@H]1CS[C@@H](C)[C@H]2NC(=O)[C@H](C)NC(=O)[C@H](NC(=O)[C@H](CCCCN)NC(=O)[C@H](CCSC)NC(=O)[C@H](CC(N)=O)NC(=O)[C@@H]3CS[C@@H](C)[C@@H](NC(=O)[C@H](CCCCN)NC(=O)[C@@H]4CS[C@@H](C)[C@@H](NC(=O)[C@@H]5CSC[C@@H](NC(=O)/C(=C/C)NC(=O)[C@@H](N)[C@@H](C)CC)C(=O)N[C@@H]([C@@H](C)CC)C(=O)NC(=C)C(=O)N[C@@H](CC(C)C)C(=O)N5)C(=O)N5CCC[C@H]5C(=O)NCC(=O)N4)C(=O)NCC(=O)N[C@@H](C)C(=O)N[C@@H](CC(C)C)C(=O)N[C@@H](CCSC)C(=O)NCC(=O)N3)[C@H](C)SC[C@H](NC2=O)C(=O)N[C@@H](CC(N)=O)C(=O)N1)[C@@H](C)CC)C(C)C)C(=O)N[C@@H](CCCCN)C(=O)O [nisin Z]
Membrane integrity (LDH release) (Caco-2 cells): uncompromised | Concentration above which dose-dependent increase in percentage of hemolysis was shown (rat erythrocytes; 0.4 to 400 μg/mL): higher than 50 μg/mL | Hemolysis (rat erythrocytes; at concentrations close to 400 μg/mL): approximately 100%
